Assay results taken from patent US20190192521A1, “Methods of Treating Arid1A-Mutated Cancers With HDAC6 Inhibitors and EZH2 Inhibitors” (The Wistar Institute of Anatomy and Biology, priority 2016, published 2019).

Tests used:
[1] = test system: ARID1A-mutated TOV21G and OVISE cells; assay: apoptosis (Annexin V, cleaved caspase 3, cleaved PARP p85) in ARID1A-mutated cells; format: cell-based, human
Procedure: FIG. 10 illustrates the finding that HDAC6 inhibition induces apoptosis in ARID1A-inactivated cells. […] Cells were collected and stained for apoptotic markers Annexin V. Apoptotic cells were quantified. Error bars represent standard error of the mean. The p-value was calculated via a two-tailed t-test.
FIG. 11 illustrates the results of the experiments of FIG. 10, but examined for apoptotic markers cleaved caspase 3 and cleaved PARP p85 by immunoblot. GAPDH expression was used as a loading control.
Cells were collected, incubated with an Annexin V-FITC antibody and subjected to flow cytometry analysis. Annexin V-positive cells (apoptotic) were measured with FloJo software. Mean of three independent experiments with S.E.M.
FIG. 78 illustrates percent apoptosis based on Annexin V staining in ARID1A mutated TOV21G cells treated with 1.25 μM ACY1215, 20 μM pan-caspase inhibitor Q-VD-Oph, or a combination for 48 hrs.
FIG. 79 illustrates percent apoptosis based on Annexin V staining in ARID1A mutated TOV21G cells treated with 1.25 μM ACY1215 for 48 hrs with or without knockdown of caspase 3 or caspase 9.
For immunoblotting, protein was isolated as described in Bitler et al. Nat. Med. 2015, 21, 231-238. Briefly, protein was extracted with RIPA buffer (150 mM NaCl, 1% NP40, 0.5% sodium deoxycholate, 0.1% SDS, 50 mM Tris pH 8.0, and 1 mM PMSF). Protein was separated on a SDS-PAGE and transferred to PVDF membrane. For immunoblot of p53 post-translation modifications, cells were treated with a proteasome inhibitor MG132 (10 μM) to stabilize p53 protein.
Annexin V and mitochondria membrane potentials were measured as follows. Phosphatidylserine externalization was detected using an Annexin V staining kit (Life Technologies) following the manufacturer's instructions. To measure change in mitochondria membrane potential cells were treated with 200 nM of tetramethylrhodamine, ethyl ester (TMRE; Abcam) for 15 min at 37° C. Annexin V and TMRE-positive cells were detected using the LSR18 and analyzed with the FlowJo software module.

[2] = test system: p53K120Ac in ARID1A-mutated TOV21G cells; assay: mitochondrial localization of p53K120Ac (immunofluorescence, cellular fractionation); format: cell-based, human; conditions: 1.25 μM
Description: FIG. 42 illustrates that apoptosis induced by HDAC6 inhibition in ARD1A-mutated cells correlates with mitochondrial localization of p53K120Ac and a decrease in mitochondrial membrane potential. […] Images were captured using confocal microscopy.
Mean of three independent experiments with S.E.M.
Expression of p53K120Ac, mitochondrial marker TOM20, and total p53 in the indicated fractions was examined by immunoblot. GAPDH expression was used as a loading control.
(§1) Immunofluorescence and immunohistochemical staining was performed as follows. Immunofluorescence was performed after 48 hours as indicated by fixing samples in 4% paraformaldehyde and permeabilizing with 0.5% Triton-X. Samples were incubated with primary antibodies for 2 hours at room temperature, highly cross absorbed secondary antibodies (Invitrogen) for 1 hour at room temperature and mounted with prolong anti-fade reagent (Invitrogen). Immuno-stained cells were imaged using a Leica Confocal microscope. […] Bitler et al. Nat. Med. 2015, 21, 231-238; Bitler et al. Cancer Research 2011, 71, 6184-6194. Expression of the stained markers was scored using a histologic score (H score) as previously described. McCarty, Jr. et al. Cancer research 1986, 46, 4244s-4248s.
Mitochondria were isolated using the Mitochondria Isolation Kit (Thermo Fisher Scientific). […]

[3] = test system: ARID1A-mutated TOV21G tumors; assay: intrabursal orthotopic xenograft, ARID1A-mutated TOV21G; format: in vivo, mice
Description: Luciferase-expressing ARID1A-mutated TOV21G cells were orthotopically transplanted into the ovarian bursa sac of SCID/nude female mice. Tumors were allowed to establish for 14 days before randomized into two groups (n=6/group).
During treatment at indicated time interval mice were imaged based on luciferase expression to monitor tumor growth. Total flux (photons/sec) is graphed. *p=0.0313.
ARID1A-mutated TOV21G cells were orthotopically transplanted into the ovarian bursa sac of SCID/nude female mice. Tumors were allowed to establish for 2 weeks before the mice were randomized into two different treatment groups (n=5/group). […] After stopping the treatment, the mice from the indicated groups were followed for survival. Shown is the Kaplan-Meier survival curves for ACY1215 or vehicle control treated mice. The p-value was calculated by log-rank test.
The number of disseminated tumor nodules in peritoneal cavity was quantified.
Histological score (H-score) was calculated for 5 separate fields from 6 tumors from 6 individual mice from each of the indicated groups. Error bars represent S.E.M. The p-value was calculated via two-tailed t-test.
as §1
The intrabursal orthotopic xenograft in vivo model was performed as described previously (Bitler et al. Nat. Med. 2015, 21, 231-238; Bitler et al. Cancer Research 2011, 71, 6184-6194). The protocols were approved by the Institutional Animal Care and Use Committee (IACUC). Briefly, 1×10^6 luciferase-expressing TOV-21G or RMG1 cells were unilaterally injected into the ovarian bursa sac of immunocompromised mice (n=6 per group). Two weeks after injection, tumors were visualized by injecting luciferin (intraperitoneal (i.p.): 4 mg/mice) resuspended in PBS and imaged with an In Vivo Imaging System (IVIS). […] Images were analyzed using Live Imaging 4.0 software. At end of the experiments, tumors were surgically dissected and tumor burden was calculated based on tumor weight. Intraperitoneally disseminated tumor nodules were quantified.
Seidel et al. Epigenomics 2015, 7, 103-118. […] Santo et al. Blood 2012, 119, 2579-2589. To determine the effects of HDAC6 inhibition in vivo on the growth of ARID1A-mutated tumors, luciferase-expressing ARID1A-mutated TOV21G cells were orthotopically transplanted into the bursa-sac covering the ovary of immunocompromised nude mice to mimic the tumor microenvironment. The injected ARID1A wild-type or mutant cells were allowed to grow for 2 weeks to establish the orthotopic tumors.

[4] = test system: ARID1A wild-type RMG1 tumors; assay: intrabursal orthotopic xenograft, ARID1A wild-type RMG1; format: in vivo, mice
Procedure: The consecutive sections of tumors dissected from the indicated treatment groups were subjected to immunohistochemical staining for HDAC6, Ki67, cleaved caspase 3 and p53K120AC. Scale bar=100 μm.
Histological score (H-score) was calculated for 5 separate fields from 6 tumors from 6 individual mice from each of the indicated groups. Error bars represent S.E.M. The p-values were calculated via two-tailed t-test.
Immunofluorescence and immunohistochemical staining was performed as follows. Immunofluorescence was performed after 48 hours as indicated by fixing samples in 4% paraformaldehyde and permeabilizing with 0.5% Triton-X. Samples were incubated with primary antibodies for 2 hours at room temperature, highly cross absorbed secondary antibodies (Invitrogen) for 1 hour at room temperature and mounted with prolong anti-fade reagent (Invitrogen). […] Expression of the stained markers was scored using a histologic score (H score) as previously described. […]
The intrabursal orthotopic xenograft in vivo model was performed as described previously (Bitler et al. Nat. Med. 2015, 21, 231-238; Bitler et al. Cancer Research 2011, 71, 6184-6194). […] Images were analyzed using Live Imaging 4.0 software. At end of the experiments, tumors were surgically dissected and tumor burden was calculated based on tumor weight. Intraperitoneally disseminated tumor nodules were quantified.

[5] = dissected ARID1A-mutated tumors

## O=C(CCCCCCNC(=O)c1cnc(N(c2ccccc2)c2ccccc2)nc1)NO [rocilinostat, 2-(diphenylamino)-N-(7-(hydroxyamino)-7-oxoheptyl)pyrimidine-5-carboxamide]
[1]
  apoptosis induced by the compound after knockdown of Caspase 8: did not affect the apoptosis
[1]; TOV21G, 1.25 μM, 48 hrs
  apoptosis induced by the compound after knockdown of caspase 9 or caspase 3: significantly suppressed the apoptosis
[1]; rocilinostat 1.25 μM, 48 hours
  apoptosis: Annexin V positive cells, cleaved caspase 3, cleaved PARP p85: induced apoptosis
[2]; cellular fractionation
  p53K120Ac in the mitochondrial fraction: increase in p53K120Ac in the mitochondrial fraction
[2]; immunofluorescence
  co-localization of p53K120Ac and mitochondrial marker TOM20: significant increase in co-localization
[3]; 50 mg/kg daily i.p., 21 days
  growth of ARID1A-mutated tumors (luciferase total flux): significantly inhibited the growth
[3]; 50 mg/kg daily, 3 weeks
  number of tumor nodules in peritoneal cavity: significant decrease in the number of tumor nodules
  tumor burden (tumor weight): significantly reduced the burden
[3]; 50 mg/kg daily, 3 weeks, followed after stopping treatment
  survival of mice bearing ARID1A-mutated tumors: significantly improved the survival
[3]; 50 mg/kg daily, 3 weeks, vehicle control 35 days, p=0.0023
  median survival: 51 days
[3]; [5]
  HDAC6 expression (IHC): not affected
  apoptotic marker cleaved caspase 3 (IHC H-score): increased
  cell proliferation marker Ki67 (IHC H-score): significantly decreased
  p53K120Ac staining (IHC): significantly increased
[4]; 50 mg/kg daily, 3 weeks
  growth, tumor burden, dissemination of ARID1A wild-type tumors: did not significantly affect the growth, tumor burden or dissemination
[4]; ARID1A wild-type tumors
  expression of Ki67, cleaved caspase 3, p53K120Ac (IHC): did not affect the expression of Ki67, cleaved caspase 3, or p53K120Ac
